Our source for the IC50 values is BindingDB's records for PubMed 38503166 (University of Paris).

As a reminder, the IC50 is the concentration needed to halve the response being measured.

Numbered stars: 1 amine (or outer) side, 2 acyl side, 3 side chain; on linkers, the order of the positions; unused ones are H or OH. Square brackets hold non-standard residues; d marks the D form. Peptide text beside a SMILES is read from it. * marks the point of attachment. Ala(1H-tetrazol-5-yl) = N[C@@H](Cc1nnn[nH]1)C(=O)O; Gly(cPent) = N[C@H](C(=O)O)C1CCCC1; X1 = C[C@H](N[*:1])C(=O)C(=O)[*:2]; Chg = N[C@H](C(=O)O)C1CCCCC1; OAll = C=CCO*

In this experiment the target is Subtilisin-like protease 1 (Plasmodium vivax). Description: Inhibition of Plasmodium vivax SUB1 catalytic domain.
`C=CCOC(=O)CC[C@H](NC(=O)[C@H](CC(=O)O)NC(=O)C(=O)[C@H](C)NC(=O)[C@H](C)NC(=O)[C@@H](NC(=O)[C@@H](NC(C)=O)C1CCCC1)[C@@H](C)O)C(N)=O` yielded a half-inhibitory concentration (IC50) of 70 nM.
The same measure for `C=CCOC(=O)CC[C@H](NC(=O)[C@H](CC(=O)O)NC(=O)C(=O)[C@H](C)NC(=O)[C@H](C)NC(=O)[C@@H](NC(=O)[C@@H](NC(C)=O)[C@@H](C)CC)[C@@H](C)O)C(N)=O` (Ac-ITA[X1]DE(OAll)-NH2): 100 nM; for `C=CCOC(=O)CC[C@H](NC(=O)[C@H](Cc1nnn[nH]1)NC(=O)C(=O)[C@H](C)NC(=O)[C@H](C)NC(=O)[C@@H](NC(=O)[C@@H](NC(C)=O)[C@@H](C)CC)[C@@H](C)O)C(N)=O` (Ac-ITA[X1][Ala(1H-tetrazol-5-yl)]E(OAll)-NH2): 2220 nM; for `C=CCOC(=O)CC[C@H](NC(=O)[C@H](CC(=O)O)NC(=O)C(=O)[C@H](C)NC(=O)[C@H](C)NC(=O)[C@@H](NC(=O)[C@@H](NC(C)=O)C1CCCCC1)[C@@H](C)O)C(N)=O` (Ac-[Chg]TA[X1]DE(OAll)-NH2): 150 nM.
With `CC(=O)N[C@H](C(=O)N[C@H](C(=O)N[C@@H](C)C(=O)N[C@@H](C)C(=O)C(=O)N[C@@H](CC(=O)O)C(N)=O)[C@@H](C)O)C1CCCC1` (Ac-[Gly(cPent)]TA[X1]D-NH2), the IC50 stood at 150 nM.
